Measured values as given in ChEMBL document CHEMBL1201862, “PubChem BioAssay data set” (2004).
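Each compound was tested at five concentrations against cells in 96-well plates for 48 hours. Here, GI50 denotes the concentration required for 50% inhibition of growth.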 Calls of active or inactive are those of the source. Rule as the data show it: active = GI50 up to about 1.1 µM and inactive = higher.

Tests used:
Experiment in all cases: growth of human tumour cells (NCI), 48 h
A549 = test system: A549
EKVX = test system: EKVX
HCC 2998 = test system: HCC 2998
HCT-116 = test system: HCT-116
HCT-15 = test system: HCT-15
Malme-3M = test system: Malme-3M
NCI-H226 = test system: NCI-H226
OVCAR-5 = test system: OVCAR-5
SF-268 = test system: SF-268
SF-295 = test system: SF-295
SK-MEL-28 = test system: SK-MEL-28
SN12C = test system: SN12C
UACC-62 = test system: UACC-62
M14 = test system: M14
SR = test system: SR
TK-10 = test system: TK-10
DU-145 = test system: DU-145
Hs-578T = test system: Hs-578T
MDA-MB-231 = test system: MDA-MB-231
MDA-MB-435 = test system: MDA-MB-435

SMILES	GI50 (A549)	GI50 (EKVX)	GI50 (HCC 2998)	GI50 (HCT-116)	GI50 (HCT-15) [µM]	GI50 (Malme-3M)	GI50 (NCI-H226)	GI50 (OVCAR-5)	GI50 (SF-268)	GI50 (SF-295)	GI50 (SK-MEL-28)	GI50 (SN12C)	GI50 (UACC-62)	GI50 (M14)	GI50 (SR)	GI50 (TK-10)	GI50 (DU-145)	GI50 (Hs-578T)	GI50 (MDA-MB-231)	GI50 (MDA-MB-435)
C#CCn1c(=O)c(C#N)c(O)c2cc3ccccc3nc21	> 100 µM (inactive)	> 100 µM (inactive)	> 100 µM (inactive)	> 100 µM (inactive)	> 100	> 100 µM (inactive)	> 84.1 µM (inactive)	> 84.9 µM (inactive)	> 31.6 µM (inactive)	> 100 µM (inactive)	> 100 µM (inactive)	> 100 µM (inactive)	> 100 µM (inactive)							
COc1c2c(c(O)c3c4c(c(C)cc13)C1OC3(C(OC)OC5CC(C)(O)C(OC6CC(C)(O)C(O)C(C)O6)C(C)O5)OC1C(OC)(O4)C31CO1)C(=O)C(O)CC2OC1CC(C)(O)C(OC(C)=O)C(C)O1 (configuration not stated)	< 0.01 µM (active)	< 0.01 µM (active)	< 0.01 µM (active)	< 0.01 µM (active)	0.0767	< 0.01 µM (active)	< 0.01 µM (active)	< 0.01 µM (active)	< 0.01 µM (active)	< 0.01 µM (active)	< 0.01 µM (active)	< 0.01 µM (active)	< 0.01 µM (active)	< 0.01 µM (active)	< 0.01 µM (active)	< 0.01 µM (active)				
CSC(=N)NNC(=O)CCC(=O)Nc1ccccc1C(F)(F)F	> 100 µM (inactive)	> 100 µM (inactive)	> 100 µM (inactive)	> 100 µM (inactive)	> 100	> 100 µM (inactive)	> 100 µM (inactive)	> 100 µM (inactive)	> 100 µM (inactive)	> 100 µM (inactive)	> 100 µM (inactive)	> 100 µM (inactive)	> 100 µM (inactive)	> 100 µM (inactive)	> 100 µM (inactive)	> 100 µM (inactive)				
CCN(CC)CC(=N)N(CC)c1ccccc1	> 100 µM (inactive)	> 100 µM (inactive)	93.3 µM (inactive)	> 100 µM (inactive)	> 100	> 100 µM (inactive)	> 100 µM (inactive)	> 100 µM (inactive)	> 100 µM (inactive)	> 100 µM (inactive)	> 100 µM (inactive)	> 100 µM (inactive)	> 100 µM (inactive)	> 100 µM (inactive)		> 100 µM (inactive)				
CCN(CC)Cc1ccc2cccnc2c1O	6.34 µM (inactive)	2.24 µM (inactive)	11.1 µM (inactive)	3.59 µM (inactive)	0.365	2.81 µM (inactive)	6.08 µM (inactive)	10.3 µM (inactive)	22.6 µM (inactive)	3.48 µM (inactive)	7.35 µM (inactive)	4.12 µM (inactive)	5.92 µM (inactive)		0.995 µM (active)	9.64 µM (inactive)	10.8 µM (inactive)	25.4 µM (inactive)	5.53 µM (inactive)	9.42 µM (inactive)
O=Cc1ccc(CCl)cc1	39.2 µM (inactive)	45.6 µM (inactive)		14.5 µM (inactive)	17.9			20.5 µM (inactive)	24 µM (inactive)	17.4 µM (inactive)	17.5 µM (inactive)		12.6 µM (inactive)	14.8 µM (inactive)	19.5 µM (inactive)	22.1 µM (inactive)				
Nc1ccc(C2(c3ccc(N)cc3)C3CC4CC(C3)CC2C4)cc1		16.4 µM (inactive)	20.8 µM (inactive)	21.9 µM (inactive)	14.6		19.9 µM (inactive)	15.8 µM (inactive)	1.57 µM (inactive)	0.0592 µM (active)	14.9 µM (inactive)	18.5 µM (inactive)	16.3 µM (inactive)	14.9 µM (inactive)	14.5 µM (inactive)	18 µM (inactive)			17.4 µM (inactive)	14.7 µM (inactive)
COc1ccc(/C=C/c2cnccn2)cc1OC	> 10 µM (inactive)	> 10 µM (inactive)	> 10 µM (inactive)	> 10 µM (inactive)	> 10	> 10 µM (inactive)	> 10 µM (inactive)	> 10 µM (inactive)	> 10 µM (inactive)	> 10 µM (inactive)	> 10 µM (inactive)	> 10 µM (inactive)	> 10 µM (inactive)	> 10 µM (inactive)		> 10 µM (inactive)	> 10 µM (inactive)	> 10 µM (inactive)	> 10 µM (inactive)	> 10 µM (inactive)
NC(=O)c1coc(C2OC(CO)C(O)C2O)n1 (configuration not stated)	> 100 µM (inactive)	> 100 µM (inactive)	> 100 µM (inactive)	> 100 µM (inactive)	> 100	> 100 µM (inactive)	> 100 µM (inactive)	> 100 µM (inactive)	> 100 µM (inactive)		> 100 µM (inactive)	> 100 µM (inactive)	> 100 µM (inactive)	> 100 µM (inactive)	> 100 µM (inactive)	> 100 µM (inactive)				
O=C(NC1C(O)C(O)C(CO)OC1n1cc(F)c(=O)[nH]c1=O)OCc1ccccc1 (configuration not stated)	> 100 µM (inactive)		> 100 µM (inactive)	> 100 µM (inactive)	> 100	> 100 µM (inactive)	> 100 µM (inactive)	> 100 µM (inactive)	> 100 µM (inactive)	> 100 µM (inactive)	> 100 µM (inactive)	> 100 µM (inactive)		> 100 µM (inactive)	> 100 µM (inactive)	> 100 µM (inactive)				
CCCCC(NC(=O)CC)C(=O)O (configuration not stated)	> 100 µM (inactive)	> 100 µM (inactive)	> 31.6 µM (inactive)	> 100 µM (inactive)	> 100	> 100 µM (inactive)	> 100 µM (inactive)	> 100 µM (inactive)	> 100 µM (inactive)	> 100 µM (inactive)	> 100 µM (inactive)	> 100 µM (inactive)	> 100 µM (inactive)							
COC(=O)C1OC(Oc2cc(O)c3c(=O)cc(-c4ccc(O)cc4)oc3c2)C(O)C(O)C1O (configuration not stated)	> 100 µM (inactive)	> 100 µM (inactive)	> 100 µM (inactive)	> 100 µM (inactive)	> 100	> 100 µM (inactive)	> 100 µM (inactive)	> 100 µM (inactive)	> 100 µM (inactive)	> 100 µM (inactive)	> 100 µM (inactive)	> 100 µM (inactive)	> 100 µM (inactive)							
O=C(O)C(C(=O)O)P(=S)(S)c1ccccc1 (configuration not stated)	> 100 µM (inactive)	> 100 µM (inactive)	> 100 µM (inactive)	> 100 µM (inactive)	> 100	> 100 µM (inactive)	> 100 µM (inactive)	> 100 µM (inactive)	> 100 µM (inactive)	> 100 µM (inactive)	> 100 µM (inactive)	> 100 µM (inactive)	> 100 µM (inactive)	> 100 µM (inactive)	> 73.5 µM (inactive)	> 100 µM (inactive)	> 100 µM (inactive)	> 100 µM (inactive)	> 100 µM (inactive)	> 100 µM (inactive)
NCCCCN(CCCN)Cc1ccccc1	> 100 µM (inactive)	> 100 µM (inactive)	> 100 µM (inactive)	> 100 µM (inactive)	> 100		> 100 µM (inactive)	> 100 µM (inactive)	> 100 µM (inactive)	> 100 µM (inactive)	> 100 µM (inactive)	> 100 µM (inactive)	> 100 µM (inactive)	> 100 µM (inactive)		> 100 µM (inactive)	> 100 µM (inactive)	> 100 µM (inactive)	> 100 µM (inactive)	> 100 µM (inactive)
Nc1ncnc2c1ncn2C=C=CCO			> 100 µM (inactive)	> 100 µM (inactive)	> 100	> 100 µM (inactive)	> 100 µM (inactive)	> 100 µM (inactive)		> 100 µM (inactive)	> 100 µM (inactive)	> 100 µM (inactive)		> 100 µM (inactive)	> 100 µM (inactive)	> 100 µM (inactive)	> 100 µM (inactive)	> 100 µM (inactive)	> 100 µM (inactive)	> 100 µM (inactive)
Cn1ccc(C(=O)NCCN(CCNC(=O)c2ccn(C)c(=O)c2O)CCNC(=O)c2ccn(C)c(=O)c2O)c(O)c1=O	> 100 µM (inactive)		> 100 µM (inactive)		> 100	> 100 µM (inactive)	> 100 µM (inactive)	29.9 µM (inactive)	> 100 µM (inactive)	> 100 µM (inactive)	> 100 µM (inactive)	> 100 µM (inactive)	> 100 µM (inactive)	> 100 µM (inactive)	> 100 µM (inactive)	> 100 µM (inactive)	> 100 µM (inactive)	> 100 µM (inactive)	> 100 µM (inactive)	> 100 µM (inactive)
Cc1c2cc[n+](C)cc2c(C)c2c1[nH]c1ccc(O)cc12 [ELLIPTINIUM ACETATE]	0.447 µM (active)	38.2 µM (inactive)	49.4 µM (inactive)	20.2 µM (inactive)	50.4	1.75 µM (inactive)	1.12 µM (inactive)	71.9 µM (inactive)	0.369 µM (active)	5.79 µM (inactive)	6.87 µM (inactive)	0.532 µM (active)	15.3 µM (inactive)	1.08 µM (active)		68.2 µM (inactive)	5.46 µM (inactive)	0.387 µM (active)	50.9 µM (inactive)	48.9 µM (inactive)
